# Results reported in PMC7665585, “Antidepressive effect of an inward rectifier K^+ channel blocker peptide, tertiapin-RQ” (PLoS ONE, 2020).
# Bridge positions count the residues as written; N and C are the ends. Ends that are not written are not given here. Peptide text beside a SMILES is read from it.
# Target: T1, rat ROMK (Rattus norvegicus, UniProt P35560)
# T1 construct: expressed in transfected cells; host or cells: 293T cell line 208-4 (lentiviral transduction, GFP coexpressed)
# T1 sequence (P35560 1-391): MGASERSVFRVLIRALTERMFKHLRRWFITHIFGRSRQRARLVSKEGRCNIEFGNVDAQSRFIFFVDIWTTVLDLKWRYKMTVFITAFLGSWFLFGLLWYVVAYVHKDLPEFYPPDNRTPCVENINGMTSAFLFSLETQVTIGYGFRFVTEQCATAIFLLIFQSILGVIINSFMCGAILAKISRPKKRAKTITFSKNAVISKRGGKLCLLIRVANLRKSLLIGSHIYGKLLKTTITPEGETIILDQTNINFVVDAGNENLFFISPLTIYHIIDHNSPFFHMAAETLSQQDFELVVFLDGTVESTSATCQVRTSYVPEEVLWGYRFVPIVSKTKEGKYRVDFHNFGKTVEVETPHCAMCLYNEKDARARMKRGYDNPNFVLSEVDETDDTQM
# Assay: Whole-cell patch-clamp of ROMK currents in 208–4 cells
# Assay type: cell-based
# Details: blockade at 1 μM estimated from fitted Hill curve (four parameters), whole-cell conductance, n = 3–6
# Source text: The cDNAs for rat ROMK and mouse GIRK1, 2, and 4 were generously donated by Drs Mikio Hayashi (Kansai Medical University) and David Weaver (Vanderbilt University). The ROMK channels were stably expressed by a cell line, 208–4, which was transduced with lentiviral vectors coexpressing the channel and green fluorescent protein (GFP) as described previously. The GIRK genes, cloned in a pCMV6 plasmid (Origene Technologies Inc, Rockville, MD), were transiently expressed in 293T cells with calcium phosphate transfection. GIRK channel currents were recorded 24 h after transfection.
# Cells grown on small cover glasses (3 × 18 mm) were placed in a recording chamber. Whole-cell currents were recorded in Tyrode solution using an Axopatch 200B amplifier (Axon Instruments, Foster City, CA) at 25°C. Tyrode solution contained (in mM): NaCl 140, KCl 5.4, NaH2PO4 0.33, CaCl2 2, MgCl2 1, HEPES 5, and glucose 5.5 (pH 7.4 adjusted with NaOH). High K^+ Tyrode solution (KCL 50 mM, NaCl 95 mM, and others were the same as standard Tyrode solution) was used for the recording of GIRK channels. Patch pipettes pulled from borosilicate glass (Narishige, Tokyo, Japan) were filled with an internal solution containing (in mM): K-aspartate 66, KCl 71.5, KH2PO4 1, EGTA 5, HEPES 5, and MgATP 3 (pH 7.4 adjusted with KOH). Recordings were digitized at 10 kHz, and low-pass filtered at 2 kHz. ROMK, Kir2.1, and GIRK currents were evoked with step pulses of 400 msec from -150 mV to 10 mV in 10 mV increments from a holding potential of -70 mV. Whole-cell currents were recorded 60 sec after the peptide application and those from 100 to 300 msec of the step pulses were averaged. Liquid junction potential or capacitive transient was not corrected or compensated. Whole-cell conductance was calculated as the slope of the current-voltage (I-V) relationship from -140 mV to -100 mV and normalized to the initial value (0 μM TPN), in which BaCl2-resistant current was subtracted and indicted as a percentage.
row,Molecule,"Activity (ROMK channel blocking activity, percentage of blockade at 1 μM)"
1,TPN-RQ(C14S) [Peptide 47],"- (-, <20%)"
2,"TPN 1–8 (ALCNCNRI) [Peptide 4, Partial TPN peptide (8 amino acids)]","- (-, <20%)"
3,TPN 3–10 [Peptide 6],"- (-, <20%)"
4,TPN 12–19 [Peptide 15],"- (-, <20%)"
5,TPN 13–20 [Peptide 16],"- (-, <20%)"
6,TPN-RQ(Ins9I) [Peptide 54],"- (-, <20%)"
7,TPN-RQ(C18S) [Peptide 48],"- (-, <20%)"

# Same assay, conditions: blockade at 1 μM estimated from fitted Hill curve (four parameters), whole-cell conductance, n = 3–6, read-out: Activity (ROMK channel blocking activity, percentage of blockade at 1 μM)
row,Molecule,inhibition at 1 µM [%]
1,"CC[C@H](C)[C@@H]1NC(=O)[C@H](CCCNC(=N)N)NC(=O)[C@H](CCCNC(=N)N)NC(=O)[C@H](CC(N)=O)NC(=O)[C@@H](NC(=O)[C@@H](N)CC(N)=O)CSSC[C@@H](C(=O)N[C@@H](Cc2c[nH]c3ccccc23)C(=O)N[C@@H](CCCCN)C(=O)N[C@@H](CCCCN)C(N)=O)NC(=O)[C@H](CCC(N)=O)NC(=O)[C@H](CCCCN)NC(=O)[C@@H]2CCCN2C(=O)[C@H]([C@@H](C)CC)NC1=O [Peptide 40, TPN-RQ 4-17(H12K)] (H-NCNRRIIPKQCWKK-NH2; disulfide 2-11)",< 20
2,"CC[C@H](C)[C@@H]1NC(=O)[C@H](CCCNC(=N)N)NC(=O)[C@H](CCCNC(=N)N)NC(=O)[C@H](CC(N)=O)NC(=O)[C@@H](NC(=O)[C@@H](N)CC(N)=O)CSSC[C@@H](C(=O)N[C@@H](Cc2c[nH]c3ccccc23)C(=O)N[C@@H](CCCCN)C(=O)N[C@@H](CCCCN)C(N)=O)NC(=O)[C@H](CCC(N)=O)NC(=O)[C@H](Cc2c[nH]cn2)NC(=O)[C@@H]2CCCN2C(=O)[C@H]([C@@H](C)CC)NC1=O [Peptide 39, TPN-RQ 4–17] (H-NCNRRIIPHQCWKK-NH2; disulfide 2-11)",< 20
3,"RIIIPHQK-NH2 [Peptide 21, TPN-Q 7–13 + K]",< 20
4,"IPHMCWKK-NH2 [Peptide 13, TPN 10–17]",< 20
5,"RRIIPHQK-NH2 [Peptide 22, TPN-RQ 7–13 + K]",< 20
6,"CC[C@H](C)[C@@H]1NC(=O)[C@H](CCCNC(=N)N)NC(=O)[C@H](CCCNC(=N)N)NC(=O)[C@H](CC(N)=O)NC(=O)[C@@H](N)CSSC[C@@H](C(N)=O)NC(=O)[C@H](CCC(N)=O)NC(=O)[C@H](Cc2c[nH]cn2)NC(=O)[C@@H]2CCCN2C(=O)[C@H]([C@@H](C)CC)NC1=O [Peptide 35, TPN-RQ 5–14] (H-CNRRIIPHQC-NH2; disulfide 1-10)",< 20
7,"CC[C@H](C)[C@@H]1NC(=O)[C@H](CCCNC(=N)N)NC(=O)[C@H](CCCNC(=N)N)NC(=O)[C@H](CC(N)=O)NC(=O)[C@@H]2CSSC[C@@H](C(=O)NCC(=O)N[C@@H](CCCCN)C(=O)N[C@@H](CCCCN)C(N)=O)NC(=O)[C@H](CCCCN)NC(=O)[C@H](CCCCN)NC(=O)[C@H](C)NC(=O)[C@H](CSSC[C@H](NC(=O)[C@H](CC(C)C)NC(=O)[C@H](C)N)C(=O)N[C@@H](CC(N)=O)C(=O)N2)NC(=O)[C@H](CCC(N)=O)NC(=O)[C@H](Cc2c[nH]cn2)NC(=O)[C@@H]2CCCN2C(=O)[C@H]([C@@H](C)CC)NC1=O [Peptide 65, TPN-RQ(W15A)] (H-ALCNCNRRIIPHQCAKKCGKK-NH2; disulfide 3-14, 5-18)",20 to 40
8,"ARIIPHQK-NH2 [Peptide 23, TPN-RQ 7-13(R7A) + K]",< 20
9,"CC[C@H](C)[C@@H]1NC(=O)[C@H](CCCNC(=N)N)NC(=O)[C@H](CCCNC(=N)N)NC(=O)[C@H](CC(N)=O)NC(=O)[C@@H](N)CSSC[C@@H](C(=O)N[C@@H](Cc2c[nH]c3ccccc23)C(=O)N[C@@H](CCCCN)C(=O)N[C@@H](CCCCN)C(N)=O)NC(=O)[C@H](CCC(N)=O)NC(=O)[C@H](Cc2c[nH]cn2)NC(=O)[C@@H]2CCCN2C(=O)[C@H]([C@@H](C)CC)NC1=O [Peptide 37, TPN-RQ 5–17] (H-CNRRIIPHQCWKK-NH2; disulfide 1-10)",< 20
10,"RIIIPHMC-NH2 [Peptide 10, TPN 7–14]",< 20
11,"CC[C@H](C)[C@@H]1NC(=O)[C@H](CCCNC(=N)N)NC(=O)[C@H](CCCNC(=N)N)NC(=O)[C@H](CC(N)=O)NC(=O)[C@@H]2CSSC[C@@H](C(=O)NCC(N)=O)NC(=O)[C@H](CCCCN)NC(=O)[C@H](CCCCN)NC(=O)[C@H](Cc3c[nH]c4ccccc34)NC(=O)[C@H](CSSC[C@H](NC(=O)[C@H](CC(C)C)NC(=O)[C@H](C)N)C(=O)N[C@@H](CC(N)=O)C(=O)N2)NC(=O)[C@H](CCC(N)=O)NC(=O)[C@H](Cc2c[nH]cn2)NC(=O)[C@@H]2CCCN2C(=O)[C@H]([C@@H](C)CC)NC1=O [Peptide 71, TPN-RQ(Δ20K/Δ21K)] (H-ALCNCNRRIIPHQCWKKCG-NH2; disulfide 3-14, 5-18)",20 to 40
12,"CC[C@H](C)[C@@H]1NC(=O)[C@H](CCCNC(=N)N)NC(=O)[C@H](CC(N)=O)NC(=O)[C@@H](NC(=O)[C@H](CC(N)=O)NC(=O)[C@H](CO)NC(=O)[C@H](CC(C)C)NC(=O)[C@H](C)N)CSSC[C@@H](C(=O)NCC(=O)N[C@@H](CCCCN)C(=O)N[C@@H](CCCCN)C(N)=O)NC(=O)[C@H](CCCCN)NC(=O)[C@H](CCCCN)NC(=O)[C@H](Cc2c[nH]c3ccccc23)NC(=O)[C@H](CO)NC(=O)[C@H](CCC(N)=O)NC(=O)[C@H](Cc2c[nH]cn2)NC(=O)[C@@H]2CCCN2C(=O)[C@H]([C@@H](C)CC)NC(=O)[C@H]([C@@H](C)CC)NC1=O [Peptide 49, TPN-Q(C3S/C14S)] (H-ALSNCNRIIIPHQSWKKCGKK-NH2; disulfide 5-18)",< 20
13,"CC[C@H](C)[C@@H]1NC(=O)[C@H](C)NC(=O)[C@H](CCCNC(=N)N)NC(=O)[C@H](CC(N)=O)NC(=O)[C@@H]2CSSC[C@@H](C(=O)NCC(=O)N[C@@H](CCCCN)C(=O)N[C@@H](CCCCN)C(N)=O)NC(=O)[C@H](CCCCN)NC(=O)[C@H](CCCCN)NC(=O)[C@H](Cc3c[nH]c4ccccc34)NC(=O)[C@H](CSSC[C@H](NC(=O)[C@H](CC(C)C)NC(=O)[C@H](C)N)C(=O)N[C@@H](CC(N)=O)C(=O)N2)NC(=O)[C@H](CCC(N)=O)NC(=O)[C@H](Cc2c[nH]cn2)NC(=O)[C@@H]2CCCN2C(=O)[C@H]([C@@H](C)CC)NC1=O [Peptide 59, TPN-RQ(R8A)] (H-ALCNCNRAIIPHQCWKKCGKK-NH2; disulfide 3-14, 5-18)",60 to 80
14,"CC[C@H](C)[C@@H]1NC(=O)[C@H](CCCNC(=N)N)NC(=O)[C@H](CCCNC(=N)N)NC(=O)[C@H](CC(N)=O)NC(=O)[C@@H]2CSSC[C@@H](C(=O)NCC(=O)N[C@@H](CCCCN)C(=O)N[C@@H](C)C(N)=O)NC(=O)[C@H](CCCCN)NC(=O)[C@H](CCCCN)NC(=O)[C@H](Cc3c[nH]c4ccccc34)NC(=O)[C@H](CSSC[C@H](NC(=O)[C@H](CC(C)C)NC(=O)[C@H](C)N)C(=O)N[C@@H](CC(N)=O)C(=O)N2)NC(=O)[C@H](CCC(N)=O)NC(=O)[C@H](Cc2c[nH]cn2)NC(=O)[C@@H]2CCCN2C(=O)[C@H]([C@@H](C)CC)NC1=O [Peptide 69, TPN-RQ(K21A)] (H-ALCNCNRRIIPHQCWKKCGKA-NH2; disulfide 3-14, 5-18)",40 to 60
15,"CC[C@H](C)[C@@H]1NC(=O)[C@H](CCCNC(=N)N)NC(=O)[C@H](CCCNC(=N)N)NC(=O)[C@H](CC(N)=O)NC(=O)[C@@H](N)CSSC[C@@H](C(N)=O)NC(=O)[C@H](CCC(N)=O)NC(=O)[C@H](CCCCN)NC(=O)[C@@H]2CCCN2C(=O)[C@H]([C@@H](C)CC)NC1=O [Peptide 36, TPN-RQ 5-14(H12K)] (H-CNRRIIPKQC-NH2; disulfide 1-10)",< 20
16,"RRIAPHQK-NH2 [Peptide 26, TPN-RQ 7-13(I10A) + K]",< 20

# Same assay, conditions: whole-cell recordings
row,Molecule,ROMK blocking activity (in words)
1,TPN-RQ(Ins9I) [Peptide 54],abolished the activity
